# Paper PMC10135569, “Does Enhanced Structural Maturity of hiPSC-Cardiomyocytes Better for the Detection of Drug-Induced Cardiotoxicity?” (Biomolecules, 2023)
# Columns and labels:
# [1] = tested on: hiPSC-CMs (iCell2 Cardiomyocytes) 2D monolayers; assay: Membrane potential (action potential) recordings with FluoVolt voltage-sensitive dye on the CellOPTIQ platform; format: cell-based, human; conditions: for activity at 1 µM / activity at 3 µM / activity at 10 µM / activity at 0.1 µM / activity at 0.3 µM: Homo sapiens, Cardiomyocyte, 0.5 h, 30 min, delta over DMSO 0.1%
# Procedure, shortened: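 iCell2 hiPSC-CM monolayers (50,000 cells/well on fibronectin or Matrix Plus, days 5–6) were loaded with FluoVolt (1:1000, 20 min, 37 °C) and imaged at 37 °C with 470 nm excitation and 510–560 nm emission sampled at 10 kHz. Spontaneous action potentials were recorded for 10 s at baseline and 30 min after drug, with one of four concentrations per well (n = 8).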
# [2] = tested on: hiPSC-CMs (iCell2 Cardiomyocytes) 2D monolayers; assay: Contractility measurements using video imaging (ContractilityTool / MUSCLEMOTION); format: cell-based, human; conditions: for activity at 1 µM / activity at 3 µM / activity at 10 µM / activity at 0.1 µM / activity at 0.3 µM: Homo sapiens, Cardiomyocyte, 0.5 h, 30 min, delta over DMSO 0.1%
# Procedure, shortened: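 Monolayers on fibronectin or Matrix Plus coating, tested on days 5–6 in serum-free medium. Four concentrations, one per well, n = 8, with vehicle control.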
# [3] = listed in Supplementary Table S1; no reference given; cited from earlier work
# [4] = FM monolayer, read-out: APD30 (%DD)
# [5] = FM monolayer, read-out: APD90 (%DD)
# [6] = FM monolayer, read-out: CL (%DD)
# [7] = FM monolayer, read-out: Trise (%DD)
# [8] = MM monolayer, read-out: APD30 (%DD)
# [9] = MM monolayer, read-out: APD90 (%DD)
# [10] = MM monolayer, read-out: CL (%DD)
# [11] = MM monolayer, read-out: Trise (%DD)
# [12] = FM monolayer, read-out: CtAmp (%DD)
# [13] = FM monolayer, read-out: CtD50 (%DD)
# [14] = MM monolayer, read-out: CtAmp (%DD)
# [15] = MM monolayer, read-out: CtD50 (%DD)
# [16] = 0.01–1 uM, two 2D monolayer models
compound,measurement,setting,value
CC(CCc1ccc(O)cc1)NCCc1ccc(O)c(O)c1 (stereo not drawn) [Dobutamine],activity at 1 µM,[1]; [4],84 ± 1.4%
same,activity at 1 µM,[1]; [5],89 ± 0.9%
same,activity at 1 µM,[1]; [6],76 ± 0.4%
same,activity at 1 µM,[1]; [7],86 ± 5.3%
same,activity at 3 µM,[1]; [4],77 ± 1.5%
same,activity at 3 µM,[1]; [5],86 ± 0.8%
same,activity at 3 µM,[1]; [6],77 ± 0.9%
same,activity at 3 µM,[1]; [7],100 ± 18.9%
same,activity at 10 µM,[1]; [4],90 ± 2%
same,activity at 10 µM,[1]; [5],91 ± 1.9%
same,activity at 10 µM,[1]; [6],81 ± 0.8%
same,activity at 10 µM,[1]; [7],131 ± 21.5%
same,activity at 1 µM,[1]; [8],89 ± 1.2%
same,activity at 1 µM,[1]; [9],91 ± 1%
same,activity at 1 µM,[1]; [10],75 ± 0.7%
same,activity at 1 µM,[1]; [11],91 ± 7.1%
same,activity at 3 µM,[1]; [8],85 ± 1.3%
same,activity at 3 µM,[1]; [9],91 ± 0.9%
same,activity at 3 µM,[1]; [10],76 ± 0.5%
same,activity at 3 µM,[1]; [11],109 ± 14.1%
same,activity at 10 µM,[1]; [8],86 ± 1.9%
same,activity at 10 µM,[1]; [9],96 ± 0.9%
same,activity at 10 µM,[1]; [10],81 ± 0.6%
same,activity at 10 µM,[1]; [11],146 ± 13.9%
same,effect on cycle length (in words),"[1]; both FM and MM monolayers, concentration not given",concentration-dependent decrease
same,electrical activity of the monolayers at higher concentrations,"[1]; higher concentrations, FM and MM",electrically quiescent
same,activity at 1 µM,[2]; [12],93 ± 10.7%
same,activity at 1 µM,[2]; [13],79 ± 1.5%
same,activity at 3 µM,[2]; [12],99 ± 8.4%
same,activity at 3 µM,[2]; [13],75 ± 2%
same,activity at 10 µM,[2]; [12],82 ± 3.2%
same,activity at 10 µM,[2]; [13],82 ± 2.2%
same,activity at 1 µM,[2]; [14],101 ± 11.6%
same,activity at 1 µM,[2]; [15],82 ± 1.1%
same,activity at 3 µM,[2]; [14],89 ± 6.3%
same,activity at 3 µM,[2]; [15],78 ± 1.2%
same,activity at 10 µM,[2]; [14],98 ± 7.5%
same,activity at 10 µM,[2]; [15],77 ± 1.3%
same,Free Cmax,[3],80 nM
C[C@@H]1CC(=O)NN=C1c1ccc(NN=C(C#N)C#N)cc1 [Levosimendan],effects on electrical activity,[1]; [16],no physiologically significant effects
same,activity at 0.1 µM,[1]; [4],102 ± 2.2%
same,activity at 0.1 µM,[1]; [5],96 ± 1.7%
same,activity at 0.1 µM,[1]; [6],95 ± 1.4%
same,activity at 0.1 µM,[1]; [7],97 ± 22.3%
same,activity at 0.3 µM,[1]; [4],101 ± 2.9%
same,activity at 0.3 µM,[1]; [5],94 ± 1.1%
same,activity at 0.3 µM,[1]; [6],93 ± 1.1%
same,activity at 0.3 µM,[1]; [7],80 ± 13.5%
same,activity at 1 µM,[1]; [4],94 ± 3%
same,activity at 1 µM,[1]; [5],93 ± 0.6%
same,activity at 1 µM,[1]; [6],93 ± 1.6%
same,activity at 1 µM,[1]; [7],65 ± 9.5%
same,activity at 3 µM,[1]; [4],99 ± 3.9%
same,activity at 3 µM,[1]; [5],94 ± 1%
same,activity at 3 µM,[1]; [6],97 ± 1.2%
same,activity at 3 µM,[1]; [7],101 ± 24.9%
same,activity at 0.1 µM,[1]; [8],97 ± 1.4%
same,activity at 0.1 µM,[1]; [9],96 ± 1.2%
same,activity at 0.1 µM,[1]; [10],99 ± 0.8%
same,activity at 0.1 µM,[1]; [11],107 ± 17.8%
same,activity at 0.3 µM,[1]; [8],100 ± 2.2%
same,activity at 0.3 µM,[1]; [9],100 ± 1%
same,activity at 0.3 µM,[1]; [10],97 ± 0.7%
same,activity at 0.3 µM,[1]; [11],121 ± 16.3%
same,activity at 1 µM,[1]; [8],95 ± 1.7%
same,activity at 1 µM,[1]; [9],98 ± 0.9%
same,activity at 1 µM,[1]; [10],97 ± 0.7%
same,activity at 1 µM,[1]; [11],96 ± 7.8%
same,activity at 3 µM,[1]; [8],93 ± 1.9%
same,activity at 3 µM,[1]; [9],98 ± 0.9%
same,activity at 3 µM,[1]; [10],98 ± 0.5%
same,activity at 3 µM,[1]; [11],114 ± 10.2%
same,effects on contractile activity,[2]; [16],no physiologically significant effects
same,activity at 0.1 µM,[2]; [12],125 ± 20.8%
same,activity at 0.1 µM,[2]; [13],94 ± 3.2%
same,activity at 0.3 µM,[2]; [12],94 ± 9.6%
same,activity at 0.3 µM,[2]; [13],100 ± 2.4%
same,activity at 1 µM,[2]; [12],155 ± 32.5%
same,activity at 1 µM,[2]; [13],102 ± 2.7%
same,activity at 3 µM,[2]; [12],122 ± 26.6%
same,activity at 3 µM,[2]; [13],101 ± 1.8%
same,activity at 0.1 µM,[2]; [14],120 ± 12.4%
same,activity at 0.1 µM,[2]; [15],104 ± 2%
same,activity at 0.3 µM,[2]; [14],95 ± 8.1%
same,activity at 0.3 µM,[2]; [15],102 ± 1.3%
same,activity at 1 µM,[2]; [14],199 ± 27.2%
same,activity at 1 µM,[2]; [15],104 ± 2%
same,activity at 3 µM,[2]; [14],167 ± 33.5%
same,activity at 3 µM,[2]; [15],103 ± 2.3%
same,increasing the amplitude of contraction (positive inotropy),[2]; both experimental groups,ineffective
same,contractile amplitude at higher concentrations (in words),"[2]; higher concentrations, FM and MM, not statistically significant",increased
same,change in amplitude of contraction at higher concentrations,"[2]; higher concentrations, both groups, failed to reach significance",< 20%
same,Free Cmax,[3],100 nM
